≈ marks a conversion by molar mass, not a printed value.
Experiments:
[1] = tested on: P. falciparum K1 strain (Thailand resistant to chloroquine); assay: semiautomated microdilution assay, [3H]-hypoxanthine incorporation, K1 strain; format: cell-based, Plasmodium falciparum; details: K1 strain, 72 h incubation
Procedure, shortened: (§1)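 Logit regression analysis was used to estimate IC50 values. Parasites were intraerythrocytic forms from asynchronous stock cultures, and compounds were tested by semiautomated microdilution.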

[2] = tested on: P. falciparum NF54 strain (sensitive to standard antimalarials); assay: semiautomated microdilution assay, [3H]-hypoxanthine incorporation, NF54 strain; format: cell-based, Plasmodium falciparum; details: NF54 strain, 72 h incubation
Procedure, shortened: as §1

[3] = tested on: ANKA strain of P. berghei; assay: single dose STI in vivo screen in infected mice; parameters: species or system Plasmodium berghei; details: for Activity (%) po / Activity (%) sc / Activity (%) SSVpo / Activity (%) 3 mg/kg SSV po / Activity (%) 10 mg/kg SSV po: percent reduction in parasitemia day 3 post-infection; for Activity (%) po / Survival (days) po: single 10 mg/kg po in 3% ethanol and 7% Tween 80; for Activity (%) po / Activity (%) sc / Activity (%) SSVpo: mice; for Activity (%) sc / Survival (days) sc: single 10 mg/kg sc in 3% ethanol and 7% Tween 80; for Activity (%) SSVpo: single po dose in standard suspending vehicle (SSV); for Survival (days) po / Survival (days) sc / Survival (days) SSVpo: untreated control 5.6 ± 0.3; for Survival (days) SSVpo: single po dose in SSV; for Activity (%) 3 mg/kg SSV po / Survival (days) 3 mg/kg SSV po: single 3 mg/kg po in SSV; for Activity (%) 10 mg/kg SSV po / Survival (days) 10 mg/kg SSV po: single 10 mg/kg po in SSV
Procedure, shortened: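 Groups of 3-5 Moro SPF or NMRI mice infected with the ANKA strain of P. berghei received a single dose of trioxolane on day one post-infection. The compound was given in 3% ethanol and 7% Tween 80 or in SSV (0.5% w/v CMC, 0.5% v/v benzyl alcohol, 0.4% v/v Tween 80, 0.9% w/v sodium chloride in water). Antimalarial activity was scored as percent reduction in parasitemia on day three and as survival time versus untreated controls. Survival to day 30 counted as cure.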

| Compound | IC50 (ng/ml) K1 [1] | IC50 (ng/ml) NF54 [2] | Activity (%) po [3] [%] | Activity (%) sc [3] [%] | Activity (%) SSVpo [3] [%] | Survival (days) po [3] | Survival (days) sc [3] | Survival (days) SSVpo [3] [days] | Activity (%) 3 mg/kg SSV po [3] [%] | Activity (%) 10 mg/kg SSV po [3] | Survival (days) 10 mg/kg SSV po [3] | Survival (days) 3 mg/kg SSV po [3] [days] | IC50 ([1]; Plasmodium falciparum, read-out: IC50 (ng/ml) K1) [ng/mL] | IC50 ([2]; Plasmodium falciparum, read-out: IC50 (ng/ml) NF54) [ng/mL] |
| --- | --- | --- | --- | --- | --- | --- | --- | --- | --- | --- | --- | --- | --- | --- |
| NC(=O)C[C@H]1CC[C@]2(CC1)OOC1(O2)C2CC3CC(C2)CC1C3 (stereo partly shown) [OZ243] | 0.91 ng/mL (≈ 2.83 nM) | 1.1 ng/mL (≈ 3.42 nM) | 87 | 70 | 97 | 7.3 days | 6.3 days | 8.7 | – | – | – | – | – | – |
| COCC(=O)N(C1CCCCC1)C1CCC2(CC1)OOC1(O2)C2CC3CC(C2)CC1C3 (stereo not shown) [OZ174] | 27 ng/mL (≈ 62.3 nM) | 34 ng/mL (≈ 78.4 nM) | 0 | 90 | 15 | 6.7 days | 10.3 days | 7.3 | – | – | – | – | – | – |
| CC(C)(C)NC(=O)N1CCC2(CC1)OOC1(O2)C2CC3CC(C2)CC1C3 (stereo not shown) [OZ143] | 0.98 ng/mL (≈ 2.69 nM) | 1.8 ng/mL (≈ 4.94 nM) | 48 | 99.85 | 44 | 6.7 days | 9.7 days | 6.7 | – | – | – | – | – | – |
| NC(=O)C(=O)NC[C@H]1CC[C@]2(CC1)OOC1(O2)C2CC3CC(C2)CC1C3 (stereo partly shown) [OZ268] | 0.44 ng/mL (≈ 1.21 nM) | 0.71 ng/mL (≈ 1.95 nM) | 99.86 | 99.92 | 99.47 | 9.3 days | 9.7 days | 13.3 | – | – | – | – | – | – |
| CS(=O)(=O)C[C@H]1CC[C@]2(CC1)OO[C@]1(O2)C2CC3CC(C2)CC1C3 [OZ307] | 0.62 ng/mL (≈ 1.74 nM) | 0.88 ng/mL (≈ 2.47 nM) | – | – | – | – | – | – | 74 | 98% | 9.4 days | – | – | – |
| O=C(O)C1(C(=O)O)COC2(CCC3(CC2)OOC2(O3)C3CC4CC(C3)CC2C4)OC1 (stereo not shown) [OZ122] | >100/>100 ng/ml | >100/>100 ng/ml | 10 | 0 | 3 | 5.7 days | 5.0 days | 5.3 | – | – | – | – | – | – |
| O=C(OC1CCC2(CC1)OOC1(O2)C2CC3CC(C2)CC1C3)c1ccccc1 (stereo not shown) [OZ74] | 2.3 ng/mL (≈ 5.98 nM) | 3.5 ng/mL (≈ 9.1 nM) | 63 | 99.97 | – | 6.3 days | 10.0 days | – | – | – | – | – | – | – |
| COC(=O)c1ncnn1C[C@H]1CC[C@]2(CC1)OOC1(O2)C2CC3CC(C2)CC1C3 (stereo partly shown) [OZ233] | 1.7 ng/mL (≈ 4.21 nM) | 1.9 ng/mL (≈ 4.71 nM) | 69 | 99.66 | 76 | 7.0 days | 8.3 days | 7.7 | – | – | – | – | – | – |
| S=C(Nc1ccccc1)N1CCC2(CC1)OOC1(O2)C2CC3CC(C2)CC1C3 (stereo not shown) [OZ144] | 1.4 ng/mL (≈ 3.5 nM) | 2.1 ng/mL (≈ 5.24 nM) | 99.45 | 99.94 | 92 | 7.3 days | 16.7 days | 7.3 | – | – | – | – | – | – |
| O=C(NC[C@H]1CC[C@]2(CC1)OOC1(O2)C2CC3CC(C2)CC1C3)c1ccncc1 (stereo partly shown) [OZ255] | 2.2 ng/mL (≈ 5.52 nM) | 1.1 ng/mL (≈ 2.76 nM) | 99.61 | 99.92 | 99.54 | 9.0 days | 10.0 days | 8.7 | – | – | – | – | – | – |
| O=C(OCCC1CCC2(CC1)OOC1(O2)C2CC3CC(C2)CC1C3)c1ccc([N+](=O)[O-])cc1 (stereo not shown) [OZ88] | 5.7 ng/mL (≈ 12.5 nM) | 4.2 ng/mL (≈ 9.18 nM) | 62 | 99.1 | – | 6.0 days | 11.7 days | – | – | – | – | – | – | – |
| O=C(C[C@H]1CC[C@]2(CC1)OO[C@]1(O2)C2CC3CC(C2)CC1C3)Nc1nnn[nH]1 [OZ278] | 23 ng/mL (≈ 59.1 nM) | 39 ng/mL (≈ 100 nM) | – | – | – | – | – | – | – | 56/ND % | 7.3/ND days | – | – | – |
| c1ccc2c(c1)CCC1(C2)OOC2(O1)C1CC3CC(C1)CC2C3 (stereo not shown) [OZ85] | 0.86 ng/mL (≈ 2.75 nM) | 1.8 ng/mL (≈ 5.76 nM) | 34 | 99.7 | – | 6.0 days | 8.3 days | – | – | – | – | – | – | – |
| O=C(NC[C@H]1CC[C@]2(CC1)OOC1(O2)C2CC3CC(C2)CC1C3)c1c[nH]cn1 (stereo partly shown) [OZ263] | 0.84 ng/mL (≈ 2.17 nM) | 1.1 ng/mL (≈ 2.84 nM) | 99.53 | 99.92 | 99.45 | 13.0 days | 11.0 days | 13.3 | – | – | – | – | – | – |
| C(CNC1CCC2(CC1)OOC1(O2)C2CC3CC(C2)CC1C3)CN1CCOCC1 (stereo not shown) [OZ161] | 0.40 ng/mL (≈ 0.984 nM) | 0.50 ng/mL (≈ 1.23 nM) | 59 | 99.96 | 46 | 7.0 days | 12.7 days | 6.7 | – | – | – | – | – | – |
| N#CC1(c2ccc(Cl)c(Cl)c2)CCC2(CC1)OOC1(O2)C2CC3CC(C2)CC1C3 (stereo not shown) [OZ75] | 2.4 ng/mL (≈ 5.53 nM) | 4.3 ng/mL (≈ 9.9 nM) | 77 | 5 | – | 7.3 days | 5.0 days | – | – | – | – | – | – | – |
| C1C2CC3CC1CC(C2)[C@]31OO[C@@]2(CC[C@H](Cc3nnn[nH]3)CC2)O1 [OZ363] | 46 ng/mL (≈ 133 nM) | 55 ng/mL (≈ 159 nM) | – | – | – | – | – | – | 10 | 40% | 6.8 days | 6.0 | – | – |
| O=C(C[C@H]1CC[C@]2(CC1)OO[C@]1(O2)C2CC3CC(C2)CC1C3)NCc1ccccn1 [OZ295] | 0.44 ng/mL (≈ 1.07 nM) | 0.75 ng/mL (≈ 1.82 nM) | – | – | – | – | – | – | 35 | 47% | 7.0 days | – | – | – |
| c1c[nH]c([C@H]2CC[C@]3(CC2)OOC2(O3)C3CC4CC(C3)CC2C4)n1 (stereo partly shown) [OZ251] | 0.60 ng/mL (≈ 1.82 nM) | 0.35 ng/mL (≈ 1.06 nM) | 29 | 99.87 | 6 | 6.7 days | 9.0 days | 6.0 | – | – | – | – | – | – |
| O=C([C@H]1CC[C@]2(CC1)OO[C@]1(O2)C2CC3CC(C2)CC1C3)N1CCNCC1 [OZ368] | 0.63 ng/mL (≈ 1.67 nM) | 0.43 ng/mL (≈ 1.14 nM) | – | – | – | – | – | – | 99 | 99.94% | 9.0 days | 9.2 | – | – |
| CCOC(=O)CC1CCC2(CC1)OOC1(O2)C2CC3CC(C2)CC1C3 (stereo not shown) [OZ61] | – | – | 91 | 96 | – | 7.0 days | 7.3 days | – | – | – | – | – | 0.52 (≈ 1.48 nM) | 0.53 (≈ 1.51 nM) |
| CCCCCCCCS(=O)(=O)N1CCC2(CC1)OOC1(O2)C2CC3CC(C2)CC1C3 (stereo not shown) [OZ115] | 11 ng/mL (≈ 24.9 nM) | 6.9 ng/mL (≈ 15.6 nM) | 33 | 97 | 0 | 6.3 days | 7.3 days | 5.7 | – | – | – | – | – | – |
| NC[C@H]1CC[C@@]2(CC1)OOC1(O2)C2CC3CC(C2)CC1C3 (stereo partly shown) [OZ269] | 0.32 ng/mL (≈ 1.09 nM) | 0.61 ng/mL (≈ 2.08 nM) | 98 | 99.92 | 86 | 10.7 days | 9.0 days | 11.3 | – | – | – | – | – | – |
| O=C(O)c1ccc(C[C@H]2CC[C@]3(CC2)OOC2(O3)C3CC4CC(C3)CC2C4)cc1 (stereo partly shown) [OZ214] | >10/>10 ng/ml | >10/>10 ng/ml | 44 | 65 | 54 | 6.3 days | 7.7 days | 7.3 | – | – | – | – | – | – |
| Clc1ccc(C2CCC3(CC2)OOC2(O3)C3CC4CC(C3)CC2C4)cc1 (stereo not shown) [OZ47] | 7.5 ng/mL (≈ 20 nM) | 7.4 ng/mL (≈ 19.7 nM) | 99.98 | 99 | – | 12.7 days | 8.0 days | – | – | – | – | – | – | – |
| FC1CCCCC12OOC1(CCCCC1)O2 (stereo not shown) [OZ06] | 18 ng/mL (≈ 78.2 nM) | 22 ng/mL (≈ 95.5 nM) | – | – | – | 1.0/NA/1.0^1 days | 1.0/NA/1.0^1 days | – | – | – | – | – | – | – |

— patent US6906205B2, “Spiro and dispiro 1,2,4-trioxolane antimalarials” (Medicines for Malaria Venture MMV, priority 2002, dated 2005)
